Consider 35 molecules from the NIST ThermoML archive (doi:10.1021/je500050p).

± gives the expanded uncertainty stated by the source.

This data set can be described thus: activity coefficient (dimensionless); of the first substance listed, at infinite dilution; xn = mol fraction of the nth substance listed. The conditions noted are these: 101 kPa, Liquid, Chromatography, x1 = 0.

In the case of `CCc1ccccc1` [ethylbenzene] + CCCCCCCCCCCCCC[N+](CCCCCC)(CCCCCC)CCCCCC.C[C@H](O)C(=O)[O-], the activity coefficient (323.15 K) came out at 0.56 ± 0.04, the activity coefficient (353.15 K) worked out at 0.56 ± 0.04 and the activity coefficient (373.15 K) was 0.57 ± 0.04.

Take `CCCCCCCCCC` [decane] + CCCCCCCCCCCCCC[N+](CCCCCC)(CCCCCC)CCCCCC.C[C@H](O)C(=O)[O-]: the activity coefficient reads like this: (323.15 K) 1.67 ± 0.11; (353.15 K) 1.63 ± 0.11; (373.15 K) 1.59 ± 0.11.

With `CCCCCCCCCCC` [undecane] + CCCCCCCCCCCCCC[N+](CCCCCC)(CCCCCC)CCCCCC.C[C@H](O)C(=O)[O-], the activity coefficient by setting is: (323.15 K) 1.67 ± 0.11; (353.15 K) 1.81 ± 0.12; (373.15 K) 1.75 ± 0.12.

For `CC(C)CC(C)(C)C` [2,2,4-trimethylpentane] + CCCCCCCCCCCCCC[N+](CCCCCC)(CCCCCC)CCCCCC.C[C@H](O)C(=O)[O-], the activity coefficient reads like this: (323.15 K) 1.33 ± 0.09; (353.15 K) 1.27 ± 0.08; (373.15 K) 1.25 ± 0.08.

Take `CCCCCCCCC` [nonane] + CC1(C)[C@@H]2CC[C@@]1(CS(=O)(=O)[O-])C(=O)C2.CCCCCCCCCCCCCC[N+](CCCCCC)(CCCCCC)CCCCCC: the activity coefficient runs as follows: (323.15 K) 1.5 ± 0.1; (333.15 K) 2.26 ± 0.15; (343.15 K) 3.24 ± 0.22.

For the molecule `Cc1ccccc1` [toluene] + CCCCCCCCCCCCCC[N+](CCCCCC)(CCCCCC)CCCCCC.C[C@H](O)C(=O)[O-], the activity coefficient by setting is: (323.15 K) 0.46 ± 0.04; (353.15 K) 0.46 ± 0.04; (373.15 K) 0.48 ± 0.04.

Take `Cc1ccccc1C` [1,2-dimethylbenzene] + CCCCCCCCCCCCCC[N+](CCCCCC)(CCCCCC)CCCCCC.C[C@H](O)C(=O)[O-]: the activity coefficient is, setting by setting: (323.15 K) 0.53 ± 0.04; (353.15 K) 0.55 ± 0.04; (373.15 K) 0.58 ± 0.04.

With `CCO` [ethanol] + CC1(C)[C@@H]2CC[C@@]1(CS(=O)(=O)[O-])C(=O)C2.CCCCCCCCCCCCCC[N+](CCCCCC)(CCCCCC)CCCCCC, the activity coefficient (323.15 K) was determined as 0.1, the activity coefficient (333.15 K) came out at 0.17 ± 0.03 and the activity coefficient (343.15 K) came out at 0.26 ± 0.03.

For the molecule `CCCCCCCCCCC` [undecane] + CC1(C)[C@@H]2CC[C@@]1(CS(=O)(=O)[O-])C(=O)C2.CCCCCCCCCCCCCC[N+](CCCCCC)(CCCCCC)CCCCCC, the activity coefficient was found to be 1.62 ± 0.11 (323.15 K), 2.84 ± 0.19 (333.15 K) and 4.32 ± 0.29 (343.15 K).

As for `C[N+](=O)[O-]` [nitromethane] + CC1(C)[C@@H]2CC[C@@]1(CS(=O)(=O)[O-])C(=O)C2.CCCCCCCCCCCCCC[N+](CCCCCC)(CCCCCC)CCCCCC, the activity coefficient (323.15 K) was determined as 0.34 ± 0.03, the activity coefficient (333.15 K) came out at 0.5 ± 0.1 and the activity coefficient (343.15 K) was 0.7 ± 0.1.

For the molecule `ClCCl` [dichloromethane] + CC1(C)[C@@H]2CC[C@@]1(CS(=O)(=O)[O-])C(=O)C2.CCCCCCCCCCCCCC[N+](CCCCCC)(CCCCCC)CCCCCC, the activity coefficient (323.15 K) came to 0.09 ± 0.03, the activity coefficient (333.15 K) was 0.15 ± 0.03 and the activity coefficient (343.15 K) amounted to 0.22 ± 0.03.

With `CC(C)O` [propan-2-ol] + CC1(C)[C@@H]2CC[C@@]1(CS(=O)(=O)[O-])C(=O)C2.CCCCCCCCCCCCCC[N+](CCCCCC)(CCCCCC)CCCCCC, the activity coefficient is, setting by setting: (323.15 K) 0.12 ± 0.03; (333.15 K) 0.2; (343.15 K) 0.32 ± 0.03.

In the case of `C1CCCCC1` [cyclohexane] + CC1(C)[C@@H]2CC[C@@]1(CS(=O)(=O)[O-])C(=O)C2.CCCCCCCCCCCCCC[N+](CCCCCC)(CCCCCC)CCCCCC, the activity coefficient (323.15 K) was found to be 0.69 ± 0.05, the activity coefficient (333.15 K) is 0.95 ± 0.06 and the activity coefficient (343.15 K) came to 1.24 ± 0.08.

As to `CCCCCCCCCCCC` [dodecane] + CC1(C)[C@@H]2CC[C@@]1(CS(=O)(=O)[O-])C(=O)C2.CCCCCCCCCCCCCC[N+](CCCCCC)(CCCCCC)CCCCCC, the activity coefficient worked out at 1.72 ± 0.12 (323.15 K), 3.15 ± 0.22 (333.15 K) and 5.14 ± 0.35 (343.15 K).

For `C=CCCCC` [hex-1-ene] + CC1(C)[C@@H]2CC[C@@]1(CS(=O)(=O)[O-])C(=O)C2.CCCCCCCCCCCCCC[N+](CCCCCC)(CCCCCC)CCCCCC, the activity coefficient runs as follows: (323.15 K) 0.85 ± 0.05; (333.15 K) 1.13 ± 0.07; (343.15 K) 1.75 ± 0.12.

Turning to `CCCCCCCC` [octane] + CC1(C)[C@@H]2CC[C@@]1(CS(=O)(=O)[O-])C(=O)C2.CCCCCCCCCCCCCC[N+](CCCCCC)(CCCCCC)CCCCCC, the activity coefficient stood at 1.24 ± 0.08 (323.15 K), 1.81 ± 0.12 (333.15 K) and 2.53 ± 0.17 (343.15 K).

Take `CC(C)CO` [2-methyl-1-propanol] + CC1(C)[C@@H]2CC[C@@]1(CS(=O)(=O)[O-])C(=O)C2.CCCCCCCCCCCCCC[N+](CCCCCC)(CCCCCC)CCCCCC: the activity coefficient turned out to be 0.08 ± 0.03 (323.15 K), 0.15 ± 0.03 (333.15 K) and 0.24 ± 0.03 (343.15 K).

On to `CCCO` [propan-1-ol] + CC1(C)[C@@H]2CC[C@@]1(CS(=O)(=O)[O-])C(=O)C2.CCCCCCCCCCCCCC[N+](CCCCCC)(CCCCCC)CCCCCC, for which the activity coefficient reads like this: (323.15 K) 0.09 ± 0.03; (333.15 K) 0.16 ± 0.03; (343.15 K) 0.26 ± 0.03.

As to `CC#N` [acetonitrile] + CCCCCCCCCCCCCC[N+](CCCCCC)(CCCCCC)CCCCCC.C[C@H](O)C(=O)[O-], the activity coefficient is 0.45 ± 0.04 (323.15 K), 0.44 ± 0.04 (353.15 K) and 0.43 ± 0.04 (373.15 K).

In the case of `CCCCCCCCCC` [decane] + CC1(C)[C@@H]2CC[C@@]1(CS(=O)(=O)[O-])C(=O)C2.CCCCCCCCCCCCCC[N+](CCCCCC)(CCCCCC)CCCCCC, the activity coefficient was determined as 1.52 ± 0.1 (323.15 K), 2.41 ± 0.16 (333.15 K) and 3.63 ± 0.25 (343.15 K).

Turning to `CCCCCC` [hexane] + CC1(C)[C@@H]2CC[C@@]1(CS(=O)(=O)[O-])C(=O)C2.CCCCCCCCCCCCCC[N+](CCCCCC)(CCCCCC)CCCCCC, the activity coefficient is, setting by setting: (323.15 K) 1.05 ± 0.07; (333.15 K) 1.54 ± 0.1; (343.15 K) 1.81 ± 0.12.

For the molecule `CC1CCCCC1` [methylcyclohexane] + CCCCCCCCCCCCCC[N+](CCCCCC)(CCCCCC)CCCCCC.C[C@H](O)C(=O)[O-], the activity coefficient (323.15 K) turned out to be 0.86 ± 0.06, the activity coefficient (353.15 K) was 0.82 ± 0.05 and the activity coefficient (373.15 K) stood at 0.81 ± 0.05.

For the molecule `ClC(Cl)Cl` [trichloromethane] + CCCCCCCCCCCCCC[N+](CCCCCC)(CCCCCC)CCCCCC.C[C@H](O)C(=O)[O-], the activity coefficient is, setting by setting: (323.15 K) 0.05; (353.15 K) 0.04; (373.15 K) 0.03.

Take `c1ccncc1` [pyridine] + CC1(C)[C@@H]2CC[C@@]1(CS(=O)(=O)[O-])C(=O)C2.CCCCCCCCCCCCCC[N+](CCCCCC)(CCCCCC)CCCCCC: the activity coefficient is, setting by setting: (323.15 K) 0.32 ± 0.03; (333.15 K) 0.49 ± 0.04; (343.15 K) 0.68 ± 0.05.

In the case of `CC(C)OC(C)C` [diisopropyl ether] + CC1(C)[C@@H]2CC[C@@]1(CS(=O)(=O)[O-])C(=O)C2.CCCCCCCCCCCCCC[N+](CCCCCC)(CCCCCC)CCCCCC, the activity coefficient by setting is: (323.15 K) 1; (333.15 K) 1.39 ± 0.09; (343.15 K) 1.77 ± 0.12.

`CCC(C)=O` [butanone] + CC1(C)[C@@H]2CC[C@@]1(CS(=O)(=O)[O-])C(=O)C2.CCCCCCCCCCCCCC[N+](CCCCCC)(CCCCCC)CCCCCC: the activity coefficient turned out to be 0.43 ± 0.04 (323.15 K), 0.57 ± 0.04 (333.15 K) and 0.73 ± 0.05 (343.15 K).

Turning to `CCCCO` [butan-1-ol] + CC1(C)[C@@H]2CC[C@@]1(CS(=O)(=O)[O-])C(=O)C2.CCCCCCCCCCCCCC[N+](CCCCCC)(CCCCCC)CCCCCC, the activity coefficient came out at 0.09 ± 0.03 (323.15 K), 0.15 ± 0.03 (333.15 K) and 0.27 ± 0.03 (343.15 K).

As to `CCN(CC)CC` [triethylamine] + CC1(C)[C@@H]2CC[C@@]1(CS(=O)(=O)[O-])C(=O)C2.CCCCCCCCCCCCCC[N+](CCCCCC)(CCCCCC)CCCCCC, the activity coefficient (323.15 K) was 0.84 ± 0.05, the activity coefficient (333.15 K) came out at 1.23 ± 0.08 and the activity coefficient (343.15 K) worked out at 1.55 ± 0.1.

Turning to `CCCC(C)=O` [pentan-2-one] + CC1(C)[C@@H]2CC[C@@]1(CS(=O)(=O)[O-])C(=O)C2.CCCCCCCCCCCCCC[N+](CCCCCC)(CCCCCC)CCCCCC, the activity coefficient amounted to 0.52 ± 0.04 (323.15 K), 0.78 ± 0.05 (333.15 K) and 1.07 ± 0.07 (343.15 K).

As for `Cc1ccc(C)cc1` [1,4-dimethylbenzene] + CCCCCCCCCCCCCC[N+](CCCCCC)(CCCCCC)CCCCCC.C[C@H](O)C(=O)[O-], the activity coefficient is 0.58 ± 0.04 (323.15 K), 0.58 ± 0.04 (353.15 K) and 0.58 ± 0.04 (373.15 K).

As to `CCC[N+](=O)[O-]` [1-nitropropane] + CCCCCCCCCCCCCC[N+](CCCCCC)(CCCCCC)CCCCCC.C[C@H](O)C(=O)[O-], the activity coefficient runs as follows: (323.15 K) 0.33 ± 0.03; (353.15 K) 0.34 ± 0.03; (373.15 K) 0.36 ± 0.03.

For the molecule `Cc1ccccc1C` [1,2-dimethylbenzene] + CC1(C)[C@@H]2CC[C@@]1(CS(=O)(=O)[O-])C(=O)C2.CCCCCCCCCCCCCC[N+](CCCCCC)(CCCCCC)CCCCCC, the activity coefficient (323.15 K) was 0.49 ± 0.04, the activity coefficient (333.15 K) turned out to be 0.77 ± 0.05 and the activity coefficient (343.15 K) was 1.13 ± 0.07.

As to `CCC(=O)CC` [pentan-3-one] + CCCCCCCCCCCCCC[N+](CCCCCC)(CCCCCC)CCCCCC.C[C@H](O)C(=O)[O-], the activity coefficient runs as follows: (323.15 K) 0.55 ± 0.04; (353.15 K) 0.55 ± 0.04; (373.15 K) 0.57 ± 0.04.

Consider `Cc1cccc(C)c1` [1,3-dimethylbenzene] + CCCCCCCCCCCCCC[N+](CCCCCC)(CCCCCC)CCCCCC.C[C@H](O)C(=O)[O-], for which the activity coefficient is, setting by setting: (323.15 K) 0.57 ± 0.04; (353.15 K) 0.59 ± 0.04; (373.15 K) 0.6 ± 0.1.

`c1ccncc1` [pyridine] + CCCCCCCCCCCCCC[N+](CCCCCC)(CCCCCC)CCCCCC.C[C@H](O)C(=O)[O-]: the activity coefficient worked out at 0.34 ± 0.03 (323.15 K), 0.34 ± 0.03 (353.15 K) and 0.34 ± 0.03 (373.15 K).
